Biological target: T1, Q14157 (Homo sapiens, UniProt Q14157)
T1 construct: performing SuTEx compound screening directly in cells; endogenous in cells; host or cells: DM93 cells (SILAC), soluble fraction
T1 sequence (Q14157 1-1087): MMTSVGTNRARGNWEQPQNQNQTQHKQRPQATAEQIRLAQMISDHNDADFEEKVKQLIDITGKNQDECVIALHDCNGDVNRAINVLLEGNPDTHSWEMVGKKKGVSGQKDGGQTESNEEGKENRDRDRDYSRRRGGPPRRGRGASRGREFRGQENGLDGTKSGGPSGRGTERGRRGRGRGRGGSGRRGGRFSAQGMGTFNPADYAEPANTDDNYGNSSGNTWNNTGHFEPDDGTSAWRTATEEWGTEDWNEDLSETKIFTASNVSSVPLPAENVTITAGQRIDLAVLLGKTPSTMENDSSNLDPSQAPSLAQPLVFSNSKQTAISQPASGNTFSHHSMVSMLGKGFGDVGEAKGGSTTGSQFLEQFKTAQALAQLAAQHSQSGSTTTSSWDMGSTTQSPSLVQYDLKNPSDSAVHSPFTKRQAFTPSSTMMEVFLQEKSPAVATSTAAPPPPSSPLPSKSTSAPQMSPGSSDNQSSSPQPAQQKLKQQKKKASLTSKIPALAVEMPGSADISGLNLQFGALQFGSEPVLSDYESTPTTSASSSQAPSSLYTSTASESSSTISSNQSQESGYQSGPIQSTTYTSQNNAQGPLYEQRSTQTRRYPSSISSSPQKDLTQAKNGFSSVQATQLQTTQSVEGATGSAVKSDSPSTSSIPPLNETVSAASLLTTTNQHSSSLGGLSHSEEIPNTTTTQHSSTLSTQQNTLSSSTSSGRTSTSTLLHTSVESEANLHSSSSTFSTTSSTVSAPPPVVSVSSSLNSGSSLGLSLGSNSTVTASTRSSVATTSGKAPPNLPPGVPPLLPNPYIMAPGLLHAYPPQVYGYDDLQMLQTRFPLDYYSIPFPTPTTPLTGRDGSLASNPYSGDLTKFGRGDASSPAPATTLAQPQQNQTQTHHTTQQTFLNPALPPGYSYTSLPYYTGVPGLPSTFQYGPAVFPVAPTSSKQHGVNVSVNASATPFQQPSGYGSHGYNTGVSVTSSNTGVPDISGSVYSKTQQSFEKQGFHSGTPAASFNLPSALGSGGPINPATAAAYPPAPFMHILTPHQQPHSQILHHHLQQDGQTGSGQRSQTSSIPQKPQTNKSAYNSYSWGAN
Test: SILAC LC-MS ABPP
Format: cell-based
Conditions: 25 μM 2 h, live DM93 cells
Protocol: Cells were grown to 90-95% confluence before being washed once with warm, sterile DPBS (1×, 5 mL), followed by addition of 10 mL of serum-free media (supplemented with 1% L-glutamine) containing either DMSO or SuTEx fragment (in DMSO) was added. Light cells were treated with DMSO vehicle while the heavy cells were treated with DMSO or SuTEx fragment (in DMSO) and incubated for 2 hrs. After 2 hrs, the cells were treated with SuTEx alkyne probe (HHS475, 10 μL of 1000× DMSO stock) and incubated for an additional 2 hrs. The media was aspirated and cells washed with cold PBS (5 mL) and harvested. Cells were spun at 500×g for 5 min at 4° C. followed by removal of supernatant. Pellets were resuspended in 1 mL of cold DPBS and spun at 1,400×g for 3 min at 4° C. followed by removal of supernatant. The cells were lysed in PBS by sonication and fractionated (100,000×g, 45 min, 4° C.).The light and heavy soluble fractions were diluted to 2.3 mg/mL in PBS and 432 μL were used for analysis (1 mg total protein). The probe-modified proteomes were conjugated to desthiobiotin-PEG3-azide (10 μl of 10 mM stock in DMSO; 200 μM final concentration) using TCEP (10 μl of fresh 50 mM stock in water, 1 mM final concentration), TBTA ligand (33 μl of a 1.7 mM 4:1 t-butanol/DMSO stock, 100 μM final concentration) and CuSO4 (10 μl of 50 mM stock, 1 mM final concentration). Samples were vortexed to mix and incubated for 1 hr at room temperature. The heavy and light proteomes were mixed 1:1 and the subsequent steps, including LC-MS/MS data analysis, were performed as previously described^[8a].
Coupling cell-based screens with chemical proteomics can facilitate the identification of target protein and binding sites that engage and are irreversibly modified by covalent ligands^[12]. In these assays, covalent ligands block SuTEx activity-based probe (ABP) labeling at protein sites, and the competition of probe labeling can be used to quantify potency and selectivity across the proteome^[10a]. To facilitate quantitative chemical proteomics, DM93 melanoma cells were cultured using stable isotopic labeling by amino acids in cell culture (SILAC)^[13]. Cells cultured in “light” media were treated with dimethyl sulfoxide (DMSO) vehicle while cells cultured in “heavy” media were treated with SuTEx ligand (25 μM, 2 hours, 37° C.). Next, cells were treated with HHS-475 probe (100 μM, 2 hours, 37° C.) followed by lysis and processing of proteomes for analysis. Probe-modified proteins from the soluble fraction were conjugated to a desthiobiotin-azide tag by copper-catalyzed azide-alkyne cycloaddition (CuAAC)^[14] followed by mixing of the light and heavy proteomes. The combined proteomes were digested with trypsin protease to produce probe-modified peptides, followed by enrichment and purification by avidin affinity chromatography. Probe-modified peptides were resolved, identified, and quantified by high-resolution liquid chromatography-tandem mass spectrometry (LC-MS/MS). Resultant data were analyzed as previously described^[8a, 10a]. Table 2, below, lists sites of modification targeted by sulfonyl-triazole compounds HHS-0101, HHS-0201, HHS-0301, HHS-0401, and HHS-0701. The format of the table is as follows: protein Uniprot accession number (see uniprot.org); tyrosine site (amino acid position) modified; treatment (sulfonyl-triazole compound identification number, followed by Y (where if multiple compounds modify the same site, the compounds are separated by vertical lines).

| SMILES | liganded tyrosine site 204 | liganded tyrosine site 214 | liganded tyrosine site 803 |
| --- | --- | --- | --- |
| O=C(NCC1CC1)c1ccc(S(=O)(=O)n2cncn2)cc1 [HHS-0201, 4-((1H-1,2,4-triazol-1-yl)sulfonyl)-N-(cyclopropylmethyl)benzamide] | HHS0201.Y (tyrosine sites that showed >80% reductions (SR >5) in probe labeling in cells treated with compounds (liganded sites)) | HHS0201.Y (tyrosine sites that showed >80% reductions (SR >5) in probe labeling in cells treated with compounds (liganded sites)) | – |
| O=C(NCc1ccccc1)c1ccc(S(=O)(=O)n2cncn2)cc1 [HHS-0401, 4-((1H-1,2,4-triazol-1-yl)sulfonyl)-N-benzylbenzamide] | – | – | HHS0401.Y (tyrosine sites that showed >80% reductions (SR >5) in probe labeling in cells treated with compounds (liganded sites)) |

Source: patent US20240210412A1, “SULFONYL-TRIAZOLE COMPOUNDS USEFUL AS LIGANDS AND INHIBITORS OF PROSTAGLANDIN REDUCTASE 2” (University of Virginia Patent Foundation, priority 2021, published 2024)
